Source: publication PMC6892255, “Identification of a potent small-molecule inhibitor of bacterial DNA repair that potentiates quinolone antibiotic activity in methicillin-resistant Staphylococcus aureus^” (Bioorganic & Medicinal Chemistry, 2019)
Entries after “also recorded” stand apart in the source; their conditions may differ.

Assays:
S. aureus SH1000 = assay: MIC / growth inhibition assay (end-point OD600), single agent; type: cell-based; details: Staphylococcus aureus, SH1000, 18 h, end-point OD600 after 18 h, read-out: EC50 S. aureus (SH1000) Compound only
Source text: Minimum inhibitory concentration (MIC) assays were used to evaluate the antimicrobial activity of compounds against Gram-negative (E. coli) and Gram-positive (S. aureus) bacteria. […] Gram-positive bacteria are more susceptible to small-molecule penetration, and compounds were therefore assessed for growth inhibition against the S. aureus SH1000 strain.
(§1) 2.1. Biological and biochemical methods
(§2) Bacterial strains and culture conditions
(§3) Strains utilized in the present study are detailed in Table S1. All strains used were cultivated on Mueller Hinton Agar (MHA) and grown to stationary-phase in Mueller Hinton Broth (MHB) at 37 °C for 16 h, with shaking at 180 r.p.m.
(§4) Minimum inhibitory concentration (MIC) assays
(§5) MIC assays were performed in 96 well plates and MICs were determined in accordance with the broth microdilution protocol.4 Strains grown to stationary-phase in MHB were adjusted to 5 x 10^5 colony-forming units (CFU)/mL in fresh MHB (100 µL/well) supplemented with DMSO to ensure a constant concentration of 0.5% (v/v) DMSO across all experiments. Where […]
(§6) or H2O2 (200 μM). Test compounds were prepared as two-fold serial dilutions. Cells were […]
(§7) as the lowest concentration with no visible bacterial growth, and the optical density at 600 nm (OD600) was recorded. OD600 measurements were background corrected against no-inocula control and normalized to DMSO control for dose-response analysis. The EC50 value mean and SEM were calculated from individual EC50 values from three biological replicates. […]

MRSA (USA300 JE2) = assay: Growth inhibition in the presence of mitomycin-C; type: cell-based, Staphylococcus aureus
Experimental: The analogue panel was further tested for potentiation of alternative DNA-damaging agents Mitomycin-C (MMC) and hydrogen peroxide (Table S2), which function via alkylation and oxidization DNA bases, respectively.
as §1, §2, §3, §4, §5, §6, §7

[1] = tested on: AddAB (StrepII-AddA and His6-AddB); assay: Recombinant AddAB pulldown with compound-functionalized Sepharose; type: binding; details: E. coli lysate co-expressing StrepII-AddA and His6-AddB, Western blot
Source text: A SOS reporter system was generated by transformation of JE2 cells with a plasmid containing GFP under control of the recA promoter. Activation of the SOS response in these cells results in expression of GFP which can be monitored by fluorescence intensity. […] This decrease is indicative of inhibition of the SOS response during cell death, and consistent with the proposed inhibition of AddAB-mediated DNA repair pathways. Finally, to provide additional evidence that inhibition of the bacterial DNA repair pathway by IMP-1700 (10) occurred through inhibition of AddAB, a target pulldown was conducted. IMP-1700 (10) was coupled with N-Boc-ethylenediamine to afford amide 19, followed by removal of the Boc group in 4 M HCl/dioxane and purification using strong cation exchange resin. The resulting free amine 20 was coupled to N-hydroxysuccinimide (NHS)-activated Sepharose resin at 4 °C overnight (Figure 2C), and the remaining NHS sites quenched in Tris buffer. SoluBL21 competent E. coli were transformed with pET28b^+ containing StrepII-tagged AddA and hexahistidine-tagged AddB, and expression induced overnight at 16 °C. Cells were lysed via sonication and the total lysate incubated with IMP-1700 (10)-functionalized or control Sepharose beads which had been treated with DMSO then Tris-quenched. Beads were washed three times with lysis buffer and bound protein eluted with SDS-PAGE sample buffer, followed by PAGE separation. […]
agar (LA) supplemented with kanamycin (50 μg/mL). Liquid cultures were grown at 37 °C with shaking at 180 r.p.m until an OD600 of 0.5 was reached, at which point cultures were cooled to 16 °C. Protein expression was induced by addition of isopropyl β-D-thiogalactoside (1 mM), followed by incubation for 20 h at 16 °C with shaking. Cells were collected by centrifugation (4,000 × g, 5 min) and stored at -20 °C.
Cells were re-suspended in lysis buffer (50 mM Tris-HCl, 150 mM NaCl, pH 7.5) and lysed on ice by sonication (2 min, 5 s on-off cycle, 40% amplitude) using a Vibra-cell sonicator (Sonics). […]

## O=C(O)c1cn(C2CC2)c2cc(N3CCN(C(=S)Nc4ccc(C(F)(F)F)cc4)CC3)c(F)cc2c1=O [Compound 10]
S. aureus SH1000
  EC50: 0.21 ± 0.03 µM
MRSA (USA300 JE2); JE2
  Potentiation of Mitomycin-C (MMC): did not potentiate
MRSA (USA300 JE2); read-out: EC50 Compound + MMC (0.40 µM), MRSA USA300 JE2, mitomycin-C 0.40 µM
  EC50: 1.4 ± 0.3 µM
[1]
  Pulldown of AddA and AddB by compound-functionalized Sepharose: allows co-isolation of the complex
[1]; listed as IMP-1700
  Pulldown of AddA and AddB by compound-functionalized Sepharose: both AddA and AddB subunits were pulled down; also recorded: successfully pulled down
